Among the test systems are 786-0 renal; CAKI-1 renal; DU-145 prostate; HOP-62 NSCLC; HOP-92 NSCLC; IGROV1 ovarian; MDA-MB-231 breast; OVCAR-3 ovarian; RXF 393 renal; SF-295 CNS.
What all share (experiment): inhibition of tumour cell growth, NCI panel, 48 h

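Growth conditions: 96-well plates. Treatment: test compound, 48 hours, 5 concentrations. Analysis: linear interpolation between bracketing concentrations; unreached endpoints set to highest concentration. Abbreviation: GI50, concentration required for 50% inhibition of growth. TGI denotes the concentration required for complete inhibition of growth.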

As to `O=Nc1c(-c2c(O)[nH]c3ccc(Br)cc23)[nH]c2ccccc12`, the GI50 in the assay on 786-0 renal was 3.25 µM; in the assay on CAKI-1 renal it was 3.44 µM; in the assay with DU-145 prostate it was 3.01 µM; in the assay with HOP-62 NSCLC, 4.4 µM; in the assay with HOP-92 NSCLC, 6.25 µM; in the assay on IGROV1 ovarian, 2.5 µM. Besides, the GI50 in the assay with MDA-MB-231 breast was 3.55 µM; in the assay with OVCAR-3 ovarian it was 4.03 µM; with RXF 393 renal, 3.62 µM; in the assay on SF-295 CNS, 9.8 µM. Further, the TGI with 786-0 renal was 14.1 µM; in the assay on CAKI-1 renal, over 100 µM; with DU-145 prostate, 11.8 µM; in the assay with HOP-62 NSCLC, 13.8 µM; in the assay on HOP-92 NSCLC, 45.1 µM; in the assay with IGROV1 ovarian it was over 100 µM. The TGI in the assay with MDA-MB-231 breast is 21.8 µM; in the assay on OVCAR-3 ovarian, 67.3 µM; in the assay on RXF 393 renal it was over 100 µM; with SF-295 CNS, 54.1 µM.

On to `CCCCCCCCCCCCCCCCCC(=O)Nc1ccn(C2OC(CO)C(O)C2O)c(=O)n1` (stereo not given), for which the TGI is over 100 µM in the assay on 786-0 renal; over 100 µM in the assay on CAKI-1 renal; over 100 µM in the assay with DU-145 prostate; over 96.2 µM in the assay on HOP-62 NSCLC; over 100 µM in the assay on HOP-92 NSCLC; over 100 µM with IGROV1 ovarian. Further, the TGI in the assay with MDA-MB-231 breast was over 100 µM; in the assay with OVCAR-3 ovarian, 69.6 µM; in the assay on RXF 393 renal, over 100 µM; in the assay with SF-295 CNS, over 100 µM.

Regarding `CS(=O)(=O)N(c1cc(-c2ccc3ncnc(Nc4cccc(Cl)c4)c3c2)cnc1Cl)S(C)(=O)=O`, the GI50 was 0.506 µM in the assay on 786-0 renal; 0.281 µM in the assay on CAKI-1 renal; 0.508 µM in the assay on DU-145 prostate; 0.443 µM in the assay on HOP-62 NSCLC; 0.158 µM with HOP-92 NSCLC; 0.0951 µM in the assay with IGROV1 ovarian. Also, the GI50 was 0.925 µM in the assay with MDA-MB-231 breast, 0.333 µM with OVCAR-3 ovarian, 0.231 µM in the assay on RXF 393 renal and 0.542 µM in the assay with SF-295 CNS. Besides, the TGI in the assay with 786-0 renal was 6.76 µM; with CAKI-1 renal it was 2.08 µM; in the assay on DU-145 prostate it was 14.1 µM; in the assay on HOP-62 NSCLC, 12.8 µM; in the assay on HOP-92 NSCLC, 0.891 µM; with IGROV1 ovarian, 0.528 µM. In addition, the TGI worked out at 6.21 µM in the assay on MDA-MB-231 breast, 1.88 µM in the assay on OVCAR-3 ovarian, 0.91 µM with RXF 393 renal and 3.17 µM in the assay on SF-295 CNS.

With `Cc1cccc(Cc2cnc(NC(=O)CCc3ccc(C)o3)s2)c1`, the GI50 in the assay on 786-0 renal is 0.724 µM; in the assay on CAKI-1 renal it was 0.235 µM; with DU-145 prostate, 0.38 µM; with HOP-62 NSCLC it was 0.345 µM; with HOP-92 NSCLC, 7.31 µM; with IGROV1 ovarian, 0.555 µM. Also, the GI50 is 0.45 µM with MDA-MB-231 breast, 0.192 µM in the assay on OVCAR-3 ovarian, 0.204 µM in the assay with RXF 393 renal and 0.195 µM with SF-295 CNS. The TGI in the assay on 786-0 renal was over 100 µM; with CAKI-1 renal, 50.8 µM; in the assay on DU-145 prostate, over 95.8 µM; with HOP-62 NSCLC, over 55.6 µM; in the assay with HOP-92 NSCLC, 98.7 µM; in the assay with IGROV1 ovarian, over 100 µM. Further, the TGI is 23.8 µM with MDA-MB-231 breast, 0.731 µM with OVCAR-3 ovarian, 3.71 µM in the assay with RXF 393 renal and 12.6 µM with SF-295 CNS.

With `CCN(CC)C(=S)[S][Bi]([S]C(=S)N(CC)CC)[S]C(=S)N(CC)CC`, the GI50 was 0.163 µM with 786-0 renal; 0.199 µM in the assay with CAKI-1 renal; 1.28 µM in the assay on DU-145 prostate; 1.9 µM in the assay on HOP-62 NSCLC; 0.136 µM in the assay on HOP-92 NSCLC; 0.577 µM in the assay with IGROV1 ovarian. Moreover, the GI50 in the assay on MDA-MB-231 breast is 0.133 µM; in the assay on OVCAR-3 ovarian it was 0.0525 µM; in the assay with RXF 393 renal it was 0.183 µM; in the assay with SF-295 CNS, 1.73 µM. Also, the TGI in the assay on 786-0 renal worked out at 0.299 µM; with CAKI-1 renal, 0.776 µM; with DU-145 prostate, 2.59 µM; in the assay on HOP-62 NSCLC, 3.39 µM; with HOP-92 NSCLC it was 0.276 µM; with IGROV1 ovarian, 1.8 µM. The TGI with MDA-MB-231 breast turned out to be 0.338 µM; in the assay with OVCAR-3 ovarian, 0.174 µM; in the assay on RXF 393 renal it was 0.36 µM; with SF-295 CNS it was 3.16 µM.

In the case of `CC1(C)C(=O)/C(=C\c2cccnc2)C[C@]2(C)[C@H]3CC[C@@H]4[C@@H](C(=O)/C=C/c5ccncc5)CC[C@@]4(C)[C@]3(C)CC[C@@H]12`, the GI50 with 786-0 renal is 1.85 µM; in the assay with CAKI-1 renal, 2.51 µM; in the assay with DU-145 prostate, 1.68 µM; in the assay with HOP-62 NSCLC, 1.9 µM; in the assay with HOP-92 NSCLC, 1.48 µM; in the assay on IGROV1 ovarian, 2.03 µM. In addition, the GI50 with MDA-MB-231 breast was 2.96 µM; in the assay on OVCAR-3 ovarian, 1.7 µM; in the assay on RXF 393 renal it was 1.72 µM; with SF-295 CNS, 1.95 µM. In addition, the TGI was 3.41 µM in the assay with 786-0 renal; 6.46 µM in the assay with CAKI-1 renal; 3.24 µM in the assay with DU-145 prostate; 3.94 µM in the assay with HOP-62 NSCLC; 3.39 µM in the assay with HOP-92 NSCLC; 4.05 µM in the assay with IGROV1 ovarian. The TGI with MDA-MB-231 breast came out at 9.94 µM; in the assay on OVCAR-3 ovarian, 3.36 µM; in the assay on RXF 393 renal it was 3.18 µM; with SF-295 CNS, 4.31 µM.

In the case of `Cc1ccc([C@]2(C)CC[C@H](C)/C2=C\Br)c(O)c1`, the GI50 in the assay with 786-0 renal is 3.59 µM; with CAKI-1 renal it was 4.32 µM; in the assay on DU-145 prostate, 4.1 µM; in the assay with HOP-62 NSCLC, 4.22 µM; with HOP-92 NSCLC it was 10.4 µM; in the assay on IGROV1 ovarian, 3.07 µM. Further, the GI50 is 3.5 µM in the assay with MDA-MB-231 breast, 3.23 µM in the assay with OVCAR-3 ovarian, 3.08 µM in the assay with RXF 393 renal and 3.4 µM in the assay with SF-295 CNS. Also, the TGI was found to be 13.4 µM in the assay with 786-0 renal; 16.6 µM in the assay on CAKI-1 renal; 17.2 µM with DU-145 prostate; 15.7 µM in the assay with HOP-62 NSCLC; 25.2 µM in the assay with HOP-92 NSCLC; 12.4 µM with IGROV1 ovarian. Also, the TGI with MDA-MB-231 breast is 14.4 µM; with OVCAR-3 ovarian, 12.2 µM; with RXF 393 renal, 12.4 µM; in the assay with SF-295 CNS, 11.6 µM.

Take `CC[C@H](C)C(=O)O[C@H]1C[C@H](O)C=C2C=C[C@H](C)[C@H](CC[C@@H](O)C[C@@H](O)CC(=O)O)[C@H]21`: the GI50 is over 100 µM in the assay on 786-0 renal; over 100 µM with CAKI-1 renal; over 100 µM in the assay with DU-145 prostate; over 100 µM in the assay on HOP-62 NSCLC; 23 µM in the assay on HOP-92 NSCLC; over 100 µM in the assay on IGROV1 ovarian. Besides, the GI50 with MDA-MB-231 breast, in the assay with OVCAR-3 ovarian, in the assay with RXF 393 renal and in the assay with SF-295 CNS was over 100 µM in each case. The TGI with 786-0 renal, in the assay with CAKI-1 renal, in the assay on DU-145 prostate, with HOP-62 NSCLC, in the assay with HOP-92 NSCLC and with IGROV1 ovarian was over 100 µM throughout. The TGI in the assay with MDA-MB-231 breast, in the assay on OVCAR-3 ovarian, with RXF 393 renal and in the assay with SF-295 CNS was over 100 µM throughout.
